Assay results published in ChEMBL document CHEMBL3507680, “University of Dundee, Gates Library screen for HepG2 cell viability”.

Assay: Human HepG2 cell viability assay in 384 well format
Assay type: toxicity, cell-based
Parameters: dose 125 nL, time 70.5 hour; cytotoxicity at 70.5 h: concentration not given beside the values
Settings: HepG2 cells, read-out: Inhibition

SMILES | cytotoxicity at 70.5 h
Cc1ncsc1C(=O)NCCNc1ncccc1C#N | -8.88%
CCc1nc(C)c(C(=O)NCCNc2ncccc2C#N)s1 | 19.3%
Cn1ncc2c1CCCC2NCc1cccc(OC2CCCC2)c1 (stereo not drawn) | -5.51%
CC(C)Oc1ncccc1CNC(=O)c1cc(C2CC2)on1 | 16%
COc1ccnc(N2CCN(C(=O)c3ccc(Cl)o3)CC2)n1 | -4.43%
COc1cc(C)nc(N2CCN(C(=O)c3ccoc3C)CC2)n1 | -6.48%
Cc1ccc2cc(C(=O)N3CCC(Nc4cccnn4)CC3)[nH]c2c1 | 21.4%
Cc1cccc2[nH]cc(CC(=O)N3CCC(Nc4cccnn4)CC3)c12 | 0.978%
O=C(Cc1noc2ccccc12)N1CCC(Nc2cccnn2)CC1 | -5.81%
O=C(Cc1cccc2ccccc12)N1CCC(Nc2cccnn2)CC1 | -7.06%
CC(=O)Nc1nc(CN(C)C2CCCN(c3cccnn3)C2)cs1 (stereo not drawn) | -13.5%
CN(Cc1cnn(-c2ccccc2)n1)C1CCCN(c2cccnn2)C1 (stereo not drawn) | -12.2%
Cc1nc(C)n(C2CCCN(C(=O)c3c[nH]c(C(C)C)n3)C2)n1 (stereo not drawn) | -11.1%
Cc1nccn1C1CCCN(C(=O)c2cccc(S(C)(=O)=O)c2)C1 (stereo not drawn) | -11.1%
O=C(CCCn1cncn1)N1CCCC1c1noc(C2CC2)n1 (stereo not drawn) | -3.05%
COCCCNC(=O)c1c(C)noc1C(C)C | -11.8%
CC(O)(CN1CCN(CCO)CC1)c1cccc(C(F)(F)F)c1 (stereo not drawn) | 14.6%
CCc1nccn1C1CCCN(C(=O)c2csc(C3CC3)n2)C1 (stereo not drawn) | -22%
CCN1CCOC(CNCc2csc(C)n2)C1 (stereo not drawn) | -14.2%
Cc1nccn1C1CCCN(C(=O)c2cccc(-n3cccc3)c2)C1 (stereo not drawn) | 11.6%
c1cnn(CC2CCCN2Cc2ccc(-n3cccn3)cc2)c1 (stereo not drawn) | -8.68%
CC(Cn1ccnc1)NC(=O)N1CCCN(Cc2cccs2)CC1 (stereo not drawn) | -14%
Cc1nc(C2CCCN2C(=O)CCn2cncn2)no1 (stereo not drawn) | -3.86%
CC1CCN(Cc2ccc(CNC(=O)c3ccn(C)c(=O)c3)cc2)CC1 | -9.84%

SMILES | cytotoxicity at 70.5 h
CCOc1ncccc1CNC(=O)Nc1ccc(CC)cc1 | -7.83%
CN(C)c1ncccc1CNS(=O)(=O)c1ccccc1Cl | -4.36%
CC(=O)NC1CCCN(C(=O)NCCOc2ccc3c(c2)OCO3)C1 (stereo not drawn) | -10.3%
CC(Cn1ccnc1)NC(=O)N1CCN(Cc2cccs2)CC1 (stereo not drawn) | 13.9%
CN(C)c1ncccc1CNS(=O)(=O)c1c(F)cccc1F | -8.75%
Cn1ccc(C(=O)NCc2ccc(CN3CCCC3)cc2)cc1=O | -12.4%
Cc1nn(C)c(N(C)C)c1CNC(C)COc1ccc(F)cc1 (stereo not drawn) | -4.85%
CC(=O)NCCCC(=O)NC(C)c1nnc2n1CCC2 (stereo not drawn) | -11.1%
CN(C)c1ccc(NC(=O)NCc2cccnc2N(C)C)cn1 | -8.32%
c1ccc(-n2ccc(CN3CCCC3Cn3cncn3)n2)cc1 (stereo not drawn) | -3.62%
COCc1nc(C(=O)N2CCCC(n3ccnc3)C2)cs1 (stereo not drawn) | -10%
CC(C)c1nc(C2CCCN2C(=O)CCn2cncn2)no1 (stereo not drawn) | -7.37%
CCn1nc2c(cc1=O)CN(CC(=O)Nc1nncs1)CC2 | -10.2%
CCc1n[nH]c(C2CN(C(=O)c3ccc(Cl)cn3)CCO2)n1 (stereo not drawn) | -8.84%
O=C(c1cccc(F)c1)N1CCCN(Cc2cscn2)CC1 | 21.5%
Cc1cnn(CCNCc2nnc(-c3occc3C)o2)c1 | -5.91%
CCn1cc(NC(=O)NCc2ccc(CO)c(F)c2)cn1 | -7.1%
CCn1cc(NC(=O)NCCc2ccc3c(c2)OCO3)cn1 | -10.2%
COc1c(CNC2CCc3ccccc32)c(C)nn1C (stereo not drawn) | -10.5%
CC(C)CCN(C(=O)c1ccc(-n2ncc(C#N)c2N)cc1)C1CC1 | -6.84%
COc1ccc(Cl)cc1CC(=O)N1CCN(CC(C)(C)O)CC1 | -3.48%
CC(C)(C)c1cc(NC(=O)CN2CCC(N3CCNC3=O)CC2)on1 | 17%
O=C(NCCC(=O)N1CCCCCCC1)c1ccoc1 | -1.22%
CC(C)c1nc(CN(C)C2CCN(CCc3ccncc3)C2)no1 (stereo not drawn) | -2.44%

SMILES | cytotoxicity at 70.5 h
COCc1ccc(C(=O)N2CCCN(Cc3cscn3)CC2)cc1 | -6.01%
CCc1nc(CN(C)C2CCN(CCCOc3ccccc3)C2)no1 (stereo not drawn) | 9.63%
Cc1cnc(CN(C)C2CCN(Cc3nnc(C4CC4)o3)C2)o1 (stereo not drawn) | -4.32%
Cc1cc(C)n(CC2CN(Cc3noc(C4CC4)n3)CCO2)n1 (stereo not drawn) | -6.69%
Cc1nc(C)n(CC2CCCN(Cc3nc(C4CC4)no3)C2)n1 (stereo not drawn) | -1.73%
Cc1nc(C)n(CC2CCCN(c3ncnc4sccc34)C2)n1 (stereo not drawn) | 29.9%
COCCc1noc(CN2CCCC(Cn3nc(C)nc3C)C2)n1 (stereo not drawn) | 2.6%
O=C(CCc1cscn1)N1CCCC1c1noc(C2CC2)n1 (stereo not drawn) | -15.3%
CCn1cnnc1CNC(=O)N(C)Cc1ccc(F)c(F)c1 | -5.87%
CN(CCCc1ccccc1)Cc1nc2c(cnn2C)c(=O)[nH]1 | -5.07%
COCCN(Cc1nc2c(cnn2C)c(=O)[nH]1)Cc1ccco1 | -7.8%
CCOc1cccc2c1OCC(C(=O)NS(=O)(=O)Cc1ccccc1)=C2 | 1.24%
COCCOc1ccccc1CNCc1c(C)nn(C)c1N(C)C | -0.188%
CCOC1CCN(C(=O)c2cnn(-c3ccccc3Cl)c2)CC1 | 2.04%
O=C(c1cnc(C2CC2)s1)N1CCCC(n2cccn2)C1 (stereo not drawn) | -2.13%
c1ccc2sc(N3CCOC(Cn4cccn4)C3)nc2c1 (stereo not drawn) | 3.57%
Cc1cnn(C2CCCN(C(=O)c3cn4cccnc4n3)C2)c1 (stereo not drawn) | -3.94%
Cc1ccc(NC2CCN(C(=O)Cc3ccc(C#N)cc3)CC2)nn1 | -1.55%
CN(c1ccc(F)c(F)c1)S(=O)(=O)c1cc(C(=O)O)cs1 | -6.55%
CN(c1ccc(C(C)(C)C)cc1)S(=O)(=O)c1cc(C(=O)O)cs1 | -10.9%
CCN(CC)Cc1ccc(C(=O)N2CCN(CC(C)O)CC2)cc1 (stereo not drawn) | -4.2%
Cc1nccn1CCCC(=O)N1CCC(Nc2cccnn2)CC1 | 5.36%
c1ccc2sc(CN3CCOC(Cn4cncn4)C3)nc2c1 (stereo not drawn) | -4.62%
Cc1nccn1CC1CCCN1CCCc1nc(-c2cccs2)no1 (stereo not drawn) | 9.19%

SMILES | cytotoxicity at 70.5 h
Cc1ccc(C)c(NC(=O)N(C)Cc2cnn(C)c2)c1 | -3.32%
CN(Cc1nnc2n1CCC2)C(=O)NCCc1ccc2c(c1)OCO2 | -11.6%
CN(Cc1nnc2n1CCC2)C(=O)Cc1ccc2c(c1)OCCO2 | -4.37%
O=C1OCCC1N1CCN(C(=O)Cc2c[nH]c3ccccc23)CC1 (stereo not drawn) | 7.81%
CC1CCCCN1CCNC(=O)c1ccn(-c2ccc(F)cc2)n1 (stereo not drawn) | 35.6%
O=C(CCC1CCCO1)NS(=O)(=O)c1ccc(Cl)cc1 (stereo not drawn) | -5.11%
CCC(C)NC(=O)NCCCn1nc2ccccn2c1=O (stereo not drawn) | -9.52%
O=C(NCCNc1ncccn1)c1ccc(-c2ccco2)[nH]c1=O | -2.56%
Cc1csc(N2CCN(C(=O)Cc3ccsc3)CC2)n1 | 31.2%
Cc1csc(N2CCN(C(=O)CCc3ccccn3)CC2)n1 | -2.58%
Cc1csc(N2CCN(C(=O)CCc3nccs3)CC2)n1 | -2.43%
O=C(NCCOCC(F)(F)F)c1ccc(-c2ccco2)[nH]c1=O | -9.67%
Cc1cc(C)n(CC2CCCN2C(=O)Cc2c(C)noc2C)n1 (stereo not drawn) | 7.13%
CCc1nccn1C1CCCN(C(=O)c2cc3nc(C)ccc3o2)C1 (stereo not drawn) | -2.05%
CCc1nccn1C1CCCN(C(=O)c2cnn(C)c2C2CC2)C1 (stereo not drawn) | -0.779%
CNS(=O)(=O)c1cccc(CNc2cc(C(F)(F)F)ccn2)c1 | -0.978%
COc1ccc(-n2ccc(C(=O)NCCN3CCCCC3C)n2)cc1 (stereo not drawn) | 7.59%
Cc1ccccc1CN1CCCN(C2CCOC2=O)CC1 (stereo not drawn) | 3.44%
c1csc(-c2noc(CCCN3CCCC3Cn3cccn3)n2)c1 (stereo not drawn) | -8.63%
O=C(c1ccc2c(c1)CCCC2)N1CCOCC1c1ncon1 (stereo not drawn) | 2.82%
COc1cc(CNCc2c(C)nn(C)c2N(C)C)ccc1C | -3.16%
Cc1nccn1C1CCCN(C(=O)C2=NN(C)C(=O)CC2)C1 (stereo not drawn) | 9.33%
O=C(COCC1CC1)N1CCCC(n2cncn2)C1 (stereo not drawn) | -9.93%
Cc1nc(C)n(C2CCCN(C(=O)c3csnn3)C2)n1 (stereo not drawn) | -11.1%

SMILES | cytotoxicity at 70.5 h
COc1ccc(C(=O)N2CCCC(C)C2)cc1F (stereo not drawn) | -2.9%
Cc1ccc(N2CCCC(NCc3cccc4c3OCCO4)C2)nn1 (stereo not drawn) | -4.41%
CCOCC(O)CN1CCN(C(=O)C2CC2)CC1 (stereo not drawn) | -13.7%
Cc1cc(C)n(C2CCCN(C(=O)C3=NN(C)C(=O)CC3)C2)n1 (stereo not drawn) | -9.81%
COc1cccc(COCC(=O)N2CCCC(c3cc(C)[nH]n3)C2)c1 (stereo not drawn) | -14.7%
Cn1cc(N2CCCC(NCc3cccc4c3OCCCO4)C2)cn1 (stereo not drawn) | -14.6%
CCc1nc(CNC(C)Cn2cccn2)cs1 (stereo not drawn) | -11.9%
Cc1cnn(C2CCCN(C(=O)C3=NN(C)C(=O)CC3)C2)c1 (stereo not drawn) | 22.6%
COc1ccc(C(=O)N2CCCC(CNS(C)(=O)=O)C2)cc1F (stereo not drawn) | -10.9%
O=C(NCCNc1ncccn1)N1CCN(Cc2cccnc2)CC1 | 21.2%
Cn1ncc2c1CCCC2NCc1cnc(-c2ccccc2)nc1 (stereo not drawn) | -0.439%
Cc1ccc(-c2ncc(C(=O)NCCS(N)(=O)=O)s2)c(C)c1 | -1.3%
Cc1ccc(-c2ncc(C(=O)NCCNc3ncccn3)s2)c(C)c1 | 3.03%
CCN1CCN(CC(O)c2ccc(OC(F)(F)F)cc2)CC1 (stereo not drawn) | 28.9%
CC(C)Oc1ncccc1CNC(=O)c1cc[nH]n1 | -7.86%
OC(CN1CCOCC1)c1ccc(OC(F)(F)F)cc1 (stereo not drawn) | -9.34%
Cc1cnn(CC2CN(Cc3nc(-c4ccoc4)no3)CCO2)c1 (stereo not drawn) | -18.2%
N#Cc1ccccc1OCCN1CCCCC1Cn1cncn1 (stereo not drawn) | -7.56%
COc1cc(C)nc(N2CCN(C(=O)c3ccccc3C)CC2)n1 | 43.9%
COc1ncccc1C(=O)N1CCCC(c2cc(C)[nH]n2)C1 (stereo not drawn) | -2.72%
CC(Cn1cccn1)NCc1csc(-c2ccccc2F)n1 (stereo not drawn) | -15.5%
CC(NC(=O)CN(C)S(C)(=O)=O)c1nnc2n1CCCCC2 (stereo not drawn) | 48.1%
